The test deals with G6P-DH. Description: Long-term stability G6P-DH, 10 mmol/l DTT compared to 1 mmol/l Na2SO3. The settings on record: 10 mmol/l DTT, example 3. Format: biochemical. As to the method: For the determination 250 μl R1 is mixed with 10 μl sample, incubated for 5 minutes, the reaction is started with 50 μl R2 and the CK activity is measured after incubating for a further 1 minute. The CK or G6P-DH enzyme activity was determined after storage at 2 to 8° C. or 35° C. for various periods (table 1-3,FIGS. 1-3).
The reagent R was combined with the sample to be measured as described in example 1 and the corresponding enzyme activities were determined (table 5,FIG. 5).

Turning to `O[C@H](CS)[C@H](O)CS` (racemic) [DTT, dithiothreitol, reference compound], the G6P-DH activity reads like this: (0 days at 2 to 8° C.) 4.67 U/ml; (55 days at 2 to 8° C.) 2.81 U/ml; (85 days at 2 to 8° C.) 2.69 U/ml; (114 days at 2 to 8° C.) 2.07 U/ml; (136 days at 2 to 8° C.) 1.55 U/ml; (192 days at 2 to 8° C.) 0.52 U/ml. The molecule also gave a G6P-DH activity (220 days at 2 to 8° C.) of 0.29 U/ml. In addition, the “G6P-DH activity relative to day 0” value (0 days at 2 to 8° C.) was determined as 100.0%; the “G6P-DH activity relative to day 0” value (55 days at 2 to 8° C.) is on record as 60.2%; the “G6P-DH activity relative to day 0” value (85 days at 2 to 8° C.) is 57.6%; the “G6P-DH activity relative to day 0” value (114 days at 2 to 8° C.) is on record as 44.4%; the “G6P-DH activity relative to day 0” value (136 days at 2 to 8° C.) worked out at 33.1%; the “G6P-DH activity relative to day 0” value (192 days at 2 to 8° C.) is given as 11.1%. Also, the “G6P-DH activity relative to day 0” value (220 days at 2 to 8° C.) came out at 6.2%.

(Values after patent publication US6413733B1, “Stabilized reagent and method for determining creatine kinase” (Roche Diagnostics GmbH, priority 1997, dated 2002).)
